# Reference: a melting point compilation (Tetko et al.; mined from patent text by program, amines drawn as free bases though some values may be those of a salt)
row,melting point,SMILES
1,140 to 142 °C,CCCCc1nn(-c2ccccc2Cl)c(=O)n1Cc1ccc(-c2ccccc2S(N)(=O)=O)cc1
2,175 to 177 °C,COC(=O)C=Cc1cc(OC)ccc1-c1ccccc1
3,71 to 72 °C,Cc1oc(C2CC2)nc1COc1ccc(CC(OC(C)C)C(=O)O)c2sccc12 (centres undefined)
4,215 to 220 °C,O=C(O)c1cc(Cl)c(OCc2ccc(Cl)cc2)c(Cl)c1
5,122 to 124 °C,O=C(CCC(=O)N1CCC(c2ccc(Cl)cc2)CC1)c1ccc2c(c1)CNCCC2
6,288 to 290 °C,CCOC(=O)c1ccc(-c2cc3c(N[C@H](C)c4ccccc4)ncnc3[nH]2)cc1
7,169 to 171 °C,CN1C(=O)c2cc(N/C(=C3\C(=O)Nc4ccc([N+](=O)[O-])cc43)c3ccccc3)ccc2C(C)(C)C1=O
8,245 to 249 °C,CNC(=O)c1cc(NC(=O)c2ccc(C)c(Nc3nccc(-c4cccnc4)n3)c2)cc(C(F)(F)F)c1
9,78 to 80 °C,COc1cc(Sc2ccccc2CO)ccc1Cl
10,154 to 155 °C,Cc1ccc(S(=O)(=O)N[C@@H](C)C(=O)Oc2c[nH]c(-c3ccccc3)c2)cc1
11,115 to 116 °C,CCOC(=O)c1ccc(C(=O)/C=C/c2ccc(SC)cc2)cc1
12,210 to 214 °C,CN1C(C)(C)CC(O)(CN2C(=O)C3(COc4cc5c(cc43)OCO5)c3ccccc32)CC1(C)C (centres undefined)
13,145 to 147 °C,COC(=O)c1ccc(Cl)cc1NC(=O)CSc1ccc(N)cc1
14,71 °C,C=CC(=O)OCCOc1ccc(C(=O)C(C)(C)OC(=O)C=C)cc1
15,126 to 127 °C,CCNC(=O)c1c(OC(C)(C)C)ccc2ccccc12
16,279 to 280 °C,CCn1c(-c2cc3ccccc3[nH]2)nc(-c2ccncc2)c1-c1ccc(Cl)cc1
17,115 to 118 °C,COc1ccc(-c2ccc(C(C)=O)cc2Cl)c(OC)c1
18,138 to 140 °C,CCOC(c1ccc(Cl)c2nc3n(c12)CCCN3c1ccc(Cl)cc1Cl)C1CC1 (centres undefined)
19,192 to 194 °C,CCCCNc1ncc(C(=O)c2ccc(Cl)c([N+](=O)[O-])c2)s1
20,74 to 75 °C,COc1ccc(CC(C)=O)cc1SC
21,245 to 247 °C,Cc1cc(=O)[nH]nc1-c1ccc(-c2ccc(F)cc2)cc1
22,> 270 °C,Nc1cccnc1C1CCN(c2cc3c(cc2F)c(=O)c(C(=O)O)cn3C2CC2)C1 (centres undefined)
23,85 °C,OCCc1ccc(OCc2ccccc2)cc1
24,74 to 89 °C,COc1ccccc1-c1ccc2cnc(Nc3cccc(C4CCN(C)CC4)c3OC)nn12
25,65 to 66 °C,CC(C)c1ccn2nc(SCc3ccccc3)nc2n1
26,151 to 156 °C,CCN1C(=O)CC(C(=O)O)C1c1ccccc1 (centres undefined)

row,melting point,SMILES
1,238 °C,Cc1cc(-c2ccc(Cl)c(Cl)c2)nc(-c2cccc(-c3ccc(S(N)(=O)=O)s3)c2)n1
2,141 to 143 °C,Cc1ccc(C2c3c(C)c(N4Cc5ccccc5C4)c(C)c(C)c3OC2(C)C)cc1 (centres undefined)
3,136 to 137 °C,O=C(NCCO)c1cccc(-c2cccc3nn(Cc4cccc(C(F)(F)F)c4)cc23)c1
4,87 to 89 °C,CCN(CC)CCCNC(=O)C(C)n1cc(-c2ccccc2)c(-c2ccccc2)n1 (centres undefined)
5,147 to 148 °C,COC(=O)CCCc1cc2nc(Cl)ccc2n1S(=O)(=O)c1cccc(-c2cscn2)c1
6,193 to 194 °C,COc1ccc(-c2nn(Cc3ccncc3)c(=O)cc2-c2ccncc2)cc1
7,167 to 168 °C,Cc1cc(O)ccc1C(=O)N1CCN(C)CC1
8,200 to 203 °C,CN(C)S(=O)(=O)c1cc(-c2csc(=Nc3ccc4c(c3)OCCO4)n2C)ccc1Cl
9,42 to 44 °C,O=C(CCl)C1=NOC(c2ccccc2F)C1 (centres undefined)
10,162 to 163 °C,CCOC1CCC(=O)N1S(=O)(=O)c1ccc(O)cc1 (centres undefined)
11,81 to 82 °C,O=C(Cc1ccc(F)cc1F)c1ccc(I)cc1F
12,131 to 133 °C,COc1ccc(Cl)cc1N1CCN(CCCN2C(=O)c3ccccc3C2=O)CC1
13,204 °C,CS(=O)(=O)C(=C1CN(C(c2ccccc2)c2ccccc2)C1)c1cc(Cl)cc(Cl)c1
14,139 to 140 °C,CC(NC(=O)c1cccc(I)c1)C(O)c1ccccc1 (centres undefined)
15,54 to 56 °C,COc1ccc(N(C(=O)c2ccc(OC)c(F)c2)c2ccc(F)cc2)cc1
16,76 to 77 °C,O=C(CC[C@H]1CC1(c1ccccc1)c1ccccc1)Oc1ccc([N+](=O)[O-])cc1
17,85 °C,COC(=O)CNc1ccc(CNC(=O)C2Cc3ccccc3N2S(=O)(=O)c2ccc(-c3cccc(C(F)(F)F)c3)cc2)cc1 (centres undefined)
18,110 to 112 °C,CNCc1ccc([C@H]2CC[C@@H](N(C)C(=O)c3ccc(Cl)cc3)CC2)cc1
19,181 to 185 °C,Cc1cc2cc(CN3CCCC3)cnc2cc1NC(=O)c1ccc(-c2ccc(Cl)cc2)c(F)c1
20,68 to 70 °C,CCCCCCCCCCCCCCOc1ccc(C(=O)N(Cc2ccccn2)C(C)=O)cc1
21,167 to 168 °C,O=C(O)CC1CCCc2c1n(Cc1ccc(Cl)cc1)c1ccc(C(F)(F)F)cc21 (centres undefined)
22,190 to 193 °C,COc1ccc(C(Sc2cc(Oc3ccc(F)cc3)ccc2N)C(O)C(=O)O)cc1 (centres undefined)
23,190 to 192 °C,Cc1ncncc1NC(=O)Nc1ccc(-n2nc(C(F)(F)F)cc2C2CC2)cc1
24,188 to 190 °C,Cc1ccc(CSC(=S)N2Cc3[nH]c4ccccc4c3CC2C(=O)O)cc1 (centres undefined)
25,149 to 150 °C,Cc1cccc(CCN2CCC[C@H](C(C#N)(c3ccccc3)c3ccccc3)C2)c1

# Second part, the molecule before the results:
row,SMILES,melting point
1,Cc1ccc(S(=O)(=O)C2=CC3CCC2N3C(=O)OC(C)(C)C)cc1 (centres undefined),144 to 147 °C
2,CC12CCC(CC1=C=C1C=CC(Nc3nc(Cl)nc(NC4=CCC(=C=C5CC6CCC5(C)C6(C)C)C=C4)n3)=CC1)C2(C)C,221 °C
3,COc1ccc(OC)c2c1C=CNC(=O)C2,188 to 191 °C
4,CCCCCCCCC(SCCCCCC)C(=O)Nc1c(OCC)ccc2ncccc12 (centres undefined),88 to 90 °C
5,COc1ccc2c(c1)/C(=N\NC(N)=O)C(=O)N2CCN(C(C)C)C(C)C,157 to 159 °C
6,Nc1cc(-c2c(-c3ccc(F)cc3)ncn2CCCN2CCOCC2)ccn1,186 to 187 °C
7,O=S(=O)(c1ccccc1)c1ccc(N2CCNCC2)cn1,126 to 127 °C
8,COc1ccc(OCCC#N)cc1,58 °C
9,Cc1nnc(-c2ccc3occ(-c4ccc(S(C)(=O)=O)c(C)c4)c3c2)o1,173 to 174 °C
10,CCOC(=O)C1=C(C)N(C(C)=O)C(c2csc(C)n2)=NC1c1cccc(C)c1 (centres undefined),113 to 114 °C
11,Nc1nc(N)nc(C2CN(C(c3ccccc3)c3ccccc3)C2)n1,126 to 128 °C
12,Cc1cc(-c2cc(C(F)(F)F)nn2-c2ccc(S(C)(=O)=O)c(F)c2)ccc1-c1cocn1,141 to 143 °C
13,CC1=C(C(O)c2ccc3c(c2)CN(C(N)=O)CC3)C(C)(C)CCC1 (centres undefined),88.2 to 89.5 °C
14,C#Cc1cc(C(C)(C)C)cc(C(C)(C)C)c1OCC,46 to 47 °C
15,COC(=O)CCn1nc2ccccn2c1=O,95 to 99 °C
16,O=C(OCc1cc(OCCCO)cc(OCCCO)c1)c1ccccc1,78 to 82 °C
17,COCOCc1nc(-c2ccccc2)oc1CCc1ccc(OCc2nc(-c3ccccc3)oc2C)cc1,124 to 125 °C
18,Cn1ncnc1COc1ccc2nnc(-c3ccccc3)n2n1,254 °C
19,CCOC(C)O[C@H]1C(=O)N[C@H]1C1CCCCC1 (some centres undefined),87 to 89 °C
20,C#CC(OC)c1cc(C(C)(C)C)cc(C(C)(C)C)c1OC (centres undefined),68 to 70 °C
21,CC(C)(C)c1cc(CCC(N)=O)cc(-n2nc3ccc(S(=O)(=O)c4ccccc4)cc3n2)c1O,144 to 145 °C
22,N#CC1(CCCCCCCCCCCCC2(C#N)CC2)CC1,45 to 46.9 °C
23,CC1(C)C(=O)N(c2ccc(C#N)c(C(F)(F)F)c2)C(=O)N1CCF,10 °C
24,Cn1ncnc1COc1nc2c(-c3ccccc3F)nncn2c1-c1ccccc1,195 °C

row,SMILES,melting point
1,N#Cc1c[nH]c2c(NS(=O)(=O)c3ccc(N)nc3)cccc12,> 300 °C
2,Cc1cccc(-c2sc(N)nc2-c2ccc3ncoc3c2)n1,188 to 190 °C
3,CCc1c(CCNC(=O)CCCCC(=O)O)ccc(OC)c1OC,92 to 94 °C
4,COc1c(C(=O)O)cc(Cl)c2c1CCCN2,129 to 132 °C
5,Nc1ccccc1Sc1c(N)[nH]c(=O)[nH]c1=O,> 310 °C
6,CN1CC(CC#N)CC2c3cccc4c3C(CN4)CC21 (centres undefined),100 to 104 °C
7,CC(=O)Nc1c(C)c(C)c2c(c1N(C)C)CC(C)(C)O2,186 °C
8,CCOC(=O)C1=CC(=O)C(C(=O)OCC)=C(S(=O)(=O)c2ccccc2)C1=O,112 to 114 °C
9,CCc1c(C)[nH]c(=O)c(N)c1Cc1cc(C)cc(C)c1,204 to 205 °C
10,CCCc1nc2cc3c(cc2[nH]1)NC(=O)C3C (centres undefined),235 to 238 °C
11,Cc1c(-c2cnco2)[nH]c(=O)c2c1ccc1nc(Nc3c(Cl)cccc3Cl)n(C)c12,> 300 °C
12,C=C(C(=O)O)c1cc(-c2cc3c(cc2C)C(C)(C)CCC3(C)C)ccc1OCCC,125 to 126 °C
13,COC(=O)Cc1nnc2n1-c1ccc(Cl)cc1C(c1ccccc1)=NC2,202 to 204 °C
14,Cc1nc2c(N)nc3c(c2n1CC(C)(C)O)CCCC3,290 to 292 °C
15,CN1C(=O)Cn2c(nnc2C(F)(F)F)-c2cc(Cl)ccc21,186 to 187 °C
16,Cc1cc(NC2=NCCN2)n(-c2ccccc2C)n1,168 to 169 °C
17,Cc1cc(-c2nnn(C)n2)cc(C)c1OCCCCC1Cc2cccnc2N1C (centres undefined),54 to 57 °C
18,OCc1nnc2n1-c1sc(Cl)cc1C(c1ccccc1Cl)=NC2,219 to 221 °C
19,Cc1cccc(S(=O)(=O)NC(=O)NCCCCCCN)c1,187 °C
20,Cc1cc2c(cc1O)C(C)(C)CC1(CC(C)(C)c3cc(OCCCn4cccn4)c(C)cc3O1)O2 (centres undefined),239 to 241 °C
21,Cn1cc(Oc2ccc(Cl)c(Cl)c2)c(=O)c(-c2cccc(C(F)(F)F)c2)c1,127 to 129 °C
22,CC(C)c1ccccc1N=C1N=CC(C)(C)CS1,155 to 157 °C
23,Cn1nc(Br)c2c(=O)n3c(nc21)SCC3,205 to 206 °C
24,CCc1nc(C)cn1-c1cc2c(cc1Cl)[nH]c(=O)c1n[nH]c(=O)n12,273 to 275 °C
